Reference: ChEMBL document CHEMBL1121445, “Structure-activity analyzed by pattern recognition: the asymmetric case” (J Med Chem, 1980)
Active and inactive are the calls of the source. The rule behind the calls is not given here.

Assays:
Plasmodium berghei [1] = experiment: Antimalarial activity against Plasmodium berghei.; format: functional, organism-based
[2] = Partition coefficient (logP); format: physicochemical; details: octanol/water
Plasmodium berghei [3] = experiment: Antimalarial activity against Plasmodium berghei; Active; format: functional, organism-based

Structure (SMILES)	logP ([2]; read-out: logP)	logP [2]	Activity (Plasmodium berghei [1])	Activity (Plasmodium berghei [3])
CCCCCCCCCCCCCCCC/N=C1\C=C(O)c2ncccc2C1=O	7.8		Not toxic	
CCCCCCCCCCCC1=C(O)C(=O)C=C(O)C1=O [EMBELIN]	5.04		Not toxic	
CCCCCC/N=C1/C=C(O)C(=O)c2ccc(C)nc21	1.5		Not toxic	
O=C1C(=O)c2ccc(O)cc2C(O)=C1CCCC1CCCCC1	4.64		Not toxic	
CCCCCCCCCCCCSC1=C(O)C(=O)c2cccnc2C1=O	6.62			Active
Cc1ccc2c(c1)C(=O)C(CCC(C)C)=C(O)C2=O	4.26			Active
NC1=CC(=O)c2ncccc2/C1=N\c1ccc(Cl)cc1	2.5		Not toxic	
O=C1C=C(Nc2ccc(Cl)cc2)/C(=N/c2ccc(Cl)cc2)c2cccnc21	5.6		Not toxic	
CCCCCCCCCCC1=C(O)C(=O)c2ccc(OC)cc2C1=O	6.47		Not toxic	
CCCCCCCCCCCCCCSC1=C(O)C(=O)c2cccnc2C1=O	8.62			Active
O=C1C(=O)c2cc(Cl)ccc2C(O)=C1CCCCC1CCCCC1	6.69		Not toxic	
Cc1ccc(/N=C2/C(Nc3ccc(C)c(C)c3)=CC(=O)c3ncccc32)cc1C	5.6		Not toxic	
CCCCCCCCCCC1=C(O)C(=O)c2ccc(Br)cc2C1=O	7.17		Not toxic	
Cc1ccc2c(c1)C(=O)C(O)=C(CCC(C)C)C2=O	4.26			Active
CCCCCCCCCCCCCCCC1=C(O)C(=O)c2cccnc2C1=O	7.5			Active
O=C1C(=O)c2ncccc2C(O)=C1CCCCCCCCC1CCCCC1	6.5			Active
CCCC/N=C1\C=C(O)c2ncccc2C1=N	1.5		Not toxic	
CCCCCCCCCC1=C(O)C(=O)c2sccc2C1=O	5.06		Not toxic	
COc1ccc(/N=C2/C(Nc3ccc(OC)cc3)=CC(=O)c3ncccc32)cc1	4.5		Not toxic	
Cc1ccc(/N=C2/C(N)=CC(=O)c3ncccc32)cc1C	2.5		Not toxic	
O=C1C(=O)C2=C(CCCC2)C(O)=C1CCCC1CCCCC1	5.93		Not toxic	
CCCCCCCCCCC1=C(O)C(=O)c2cc(OC)ccc2C1=O	6.47		Not toxic	
CCOC(=O)c1ccc(/N=C2/C(Nc3ccc(C(=O)OCC)cc3)=CC(=O)c3ncccc32)cc1	4.5		Not toxic	
COc1ccc(NC2=CC(=O)C(=O)c3ccccc32)cc1	1.9			Active
CCCCCCCCCCCCCCCCCCSC1=C(O)C(=O)c2cccnc2C1=O		9.62		Active

Further lines, with some results ahead:

logP ([2]; read-out: logP)	logP [2]	Structure (SMILES)	Activity (Plasmodium berghei [1])	Activity (Plasmodium berghei [3])
1.5		Cc1ccc(NC2=C(Cl)C(=O)C(=O)c3cccnc32)cc1	Not toxic	
3.28		CCN(CC)C1=CC(=O)C(=O)c2ccccc21		Active
4.69		CC1=C(CCC(C)C)C(=O)c2ccccc2C1=O	Not toxic	
1.3		O=C1C(=O)c2cccnc2C(Nc2ccccc2)=C1Cl	Not toxic	
1.5		NC1=CC(=O)c2ncccc2/C1=N\c1ccccc1	Not toxic	
7.81		O=C1C(O)=C(CCCCCCCCC2CCCCC2)C(=O)c2ccccc21 [MENOCTONE]		Active
6.63		O=C1C(=O)c2c(ccc3ccccc23)C(O)=C1CCCC1CCCCC1	Not toxic	
1.5		COc1ccc(/N=C2/C(N)=CC(=O)c3ncccc32)cc1	Not toxic	
3.4		CN(C)CCCN(C1=CC(=O)C(=O)c2ccccc21)c1ccccc1		Active
0.2		CC1=C(O)C(=O)c2ccccc2C1=O	Not toxic	
4		CC(C)CCC1=CC(=O)c2ccccc2C1=O	Not toxic	
6.11		O=C1C=C(NCCCCC2CCCCC2)c2ccccc2C1=O		Active
4.37		CC(C)CCC1=C(N)C(=O)c2ccccc2C1=O	Not toxic	
3.79		CCN(CC)CCCC/N=C1/C=C(O)C(=O)c2ccccc21		Active
1.2		CCOC1=CC(=O)C(=O)c2ccccc21	Not toxic	
4.1		O=C(CCC1CCCCC1)C1=CC(=O)c2ccccc2C1=O	Not toxic	
5.47		CCCCCN(CCCCC)CCC/N=C1/C=C(O)C(=O)c2ccccc21		Active
3.38		CCCC(C)COC1=CC(=O)C(=O)c2ccccc21 (stereo unspecified)	Not toxic	
1.2		NC1=CC(=O)C(=O)c2cccnc21	Not toxic	
5.31		O=C1C(=O)c2ccccc2C(O)=C1CCCC1CCCCC1		Active
4.64		CC(C)CCC1=C(Cl)C(=O)c2ccccc2C1=O	Not toxic	
3.38		CCCCCOC1=CC(=O)C(=O)c2ccccc21	Not toxic	
3.87		CC(C)CCC1=C(O)C(=O)c2ccccc2C1=O		Active
